Series [1] in a line: Human liver microsome stability. In kind it is in vitro ADME. As to conditions: human liver microsomes; for microsomal CLint at 100 nM: apparent intrinsic clearance, no unit in table (μL/min/pmol, μL/min/mg or μL/min/Mcell); for Parent at 60 min (%) / half-life at 100 nM: 100 nM, 37° C., tartrate salt. On the procedure:
Human Liver Microsome Stability
Test compounds were dissolved in DMSO to prepare 10 mM stock solutions, diluted to a final test concentration of 100 nM, and incubated at 37° C. with human liver microsomes. Metabolic stability, expressed as a percent of the parent compound remaining, was assessed at 0, 15, 30, 45, and 60 minutes and calculated by comparing the compound's peak area at the time point relative to that at time-0. The half-life (T1/2) was estimated from the slope of the initial linear range of the logarithmic curve of compound remaining (%) vs. time, assuming first-order kinetics. The apparent intrinsic clearance (CLint, in μL/min/pmol, μL/min/mg or μL/min/Mcell) was calculated according to the following formula: CLint=0.693 T1/2*(mg protein/μL or million cells/μL or pmol CYP isoyme/μL).
Background: Microsomes from liver hold many membrane-bound enzymes, among them those of drug oxidation.

The target of series [2] is T1, human M4 mAChR (Homo sapiens, UniProt P08173).
T1 construct: expressed in transfected cells
T1 sequence (P08173 1-479): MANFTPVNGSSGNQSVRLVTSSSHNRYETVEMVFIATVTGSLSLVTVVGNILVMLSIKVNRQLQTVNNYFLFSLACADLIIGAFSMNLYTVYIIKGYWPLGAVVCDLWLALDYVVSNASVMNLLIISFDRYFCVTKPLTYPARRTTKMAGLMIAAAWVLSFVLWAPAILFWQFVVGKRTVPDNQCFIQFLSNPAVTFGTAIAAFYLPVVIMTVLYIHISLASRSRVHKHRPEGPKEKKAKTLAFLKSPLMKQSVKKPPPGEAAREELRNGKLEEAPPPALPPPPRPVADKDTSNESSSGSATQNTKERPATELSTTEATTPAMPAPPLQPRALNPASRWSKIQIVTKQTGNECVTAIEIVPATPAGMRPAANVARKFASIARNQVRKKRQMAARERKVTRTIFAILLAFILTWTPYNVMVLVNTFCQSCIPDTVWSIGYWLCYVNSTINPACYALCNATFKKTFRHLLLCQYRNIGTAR
Briefly: Whole-cell functional agonist activity, phospho-ERK (pERK), CHOK1-based human M4 mAChR stable cell line. As to conditions: for EC50: agonist, CHOK1 human M4 cells; for M4 Top (%): top of curve, % of min (DMSO) and max (10 mM Acetylcholine) responses. On the procedure: (§1) Whole-cell functional agonist activity in cells expressing recombinant human muscarinic receptor subtypes.
(§2) ThermoFisher's FLIPR™ (Fluorescence Imaging Plate Reader) was used to quantify Ca^2+ release, a functional effect associated with Gaq-coupled M1 and M5 mAChRs. CisBio's phospho-ERK (pERK) Thr202/Tyr204 was used to evaluate Gai/o-coupled M2 and M4 mAChRs responses.
(§3) Percentage activity was calculated using the following formula: % Activity=100%×(mean RFU of test sample mean RFU of vehicle control)/(mean MAX RFU control ligand mean RFU of vehicle control) where RFU is relative fluorescence unit. The M2 and the M4 cells were thawed out one day before the assay and plated at 2,000 and 1,000 cells per well, respectively, in […] of DMEM/F12+10% FBS in ProxiPlate 384-well white-walled, white-bottom tissue culture-treated plates and incubated at 37° C. and 5% CO2 overnight. Before the assay, cells were serum-starved at 37° C. in 5% CO2 for 4 hours by replacing culture media with […] of F12 media with 8 mM HEPES. The pERK assay was run according to assay kit instructions with minor volume modifications outlined below.
Compound addition was carried out by adding 3× compound solution in […] of media with 0.3% DMSO (made from a 10 mM compound stock solution in 100% DMSO) for 5 minutes before the reaction was terminated by adding […] lysis and blocking solution. Cells were left in the lysis solution for 30 minutes before […] of antibody (Eu and d2) solution was added for an additional 2-hour incubation while protected from light. The plates were then read on laser Pherastar using the TR-FRET protocol.

In series [3] the target is T2, human M1 mAChR (Homo sapiens, UniProt P11229).
T2 construct: expressed in transfected cells
T2 sequence (P11229 1-460): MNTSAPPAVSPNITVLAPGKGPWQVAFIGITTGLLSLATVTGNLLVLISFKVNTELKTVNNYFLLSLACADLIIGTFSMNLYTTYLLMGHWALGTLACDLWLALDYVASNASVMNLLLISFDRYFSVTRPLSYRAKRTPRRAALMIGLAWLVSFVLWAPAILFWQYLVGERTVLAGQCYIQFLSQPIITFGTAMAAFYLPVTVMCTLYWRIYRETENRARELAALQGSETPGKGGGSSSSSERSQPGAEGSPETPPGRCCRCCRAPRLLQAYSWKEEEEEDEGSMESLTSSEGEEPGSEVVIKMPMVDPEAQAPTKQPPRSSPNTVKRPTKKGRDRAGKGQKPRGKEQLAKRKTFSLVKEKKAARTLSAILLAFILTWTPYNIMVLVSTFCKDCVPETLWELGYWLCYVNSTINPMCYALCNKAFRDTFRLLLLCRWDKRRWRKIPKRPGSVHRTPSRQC
Briefly: Whole-cell functional agonist activity, FLIPR Ca2+ release, U2OS-based human M1 mAChR stable cell line. As to conditions: for EC50: agonist, FLIPR Ca2+ release, U2OS human M1 cells; for Emax: top of curve, % activity vs MAX control ligand, FLIPR Ca2+.
Excerpt: as §1, §2
One day before the assay, M1, M3, and M5 cells were thawed out and plated at 10,000 cells/well into black-walled, clear-bottom, Poly-D-lysine coated 384-well microplates and incubated at 37° C. and 5% CO2 in MEME+10% FBS+1× penicillin/streptomycin/glutamine, for the M1 and M3 cell lines and F-12+10% FBS+1× penicillin/streptomycin/glutamine for the M5 cell line. […] The M1 and M5 responses were analyzed using the CBIS data analysis suite (ChemInnovation, CA).
as §3

Series [4] can be described thus: Storage stability of the tartrate salt (reanalysis by LC-MS, 1H NMR, 19F NMR). In kind it is physicochemical. Conditions: six months of storage at 0° C.; LC-MS, 1H NMR, 19F NMR. On the procedure:
The tartrate salt of the title compound was unstable at test storage conditions. Although the initial NMR spectra were clean, the LCMS purity was about 75%. After storage at 0° C. for six months, the sample was reanalyzed by ^1H-NMR, ^19F-NMR, and LC-MS.

SMILES strings stand for the structures.

As a reminder, the microsomal CLint is a measure of how fast metabolising enzymes remove a compound, apart from limits set by blood flow. The half-life is the time in which the quantity being followed falls by half. The EC50 is the concentration needed to bring the measured effect to its halfway point. Higher therefore signals weaker potency. Broadly, the Emax is the size of the effect at its maximum, as opposed to the concentration needed. On to `CN1CCC=C(c2nsnc2OCCCCCC(F)F)C1` [Example 6, 3-((6,6-difluorohexyl)oxy)-4-(1-methyl-1,2,5,6-tetrahydropyridin-3-yl)-1,2,5-thiadiazole], for which, in series [1], the intrinsic metabolic clearance (microsomal CLint) at 100 nM is 413 µL/min/mg, the “Parent at 60 min (%)” value is 8% and the half-life at 100 nM was 17 min. Besides, in series [2], the EC50 turned out to be 11 nM and the “M4 Top (%)” value is 108%. In series [3], this compound registered an EC50 of 2.5 nM and an Emax of 94%.
In the case of `CCC(F)(F)CCCOc1nsnc1C1=CCCN(C)C1` [Example 9, 3-((4,4-Difluorohexyl)oxy)-4-(1-methyl-1,2,5,6-tetrahydropyridin-3-yl)-1,2,5-thiadiazole], in series [1], the microsomal CLint at 100 nM worked out at 576 µL/min/mg, the “Parent at 60 min (%)” value was determined as 3% and the half-life at 100 nM is 12 min. Moreover, in series [2], the EC50 was above 34 nM and the “M4 Top (%)” value was determined as 5%. In series [3], this compound registered an EC50 of 28.4 nM and an Emax of 46%.
In the case of `CN1CCC=C(c2nsnc2OCCCCCC(F)(F)F)C1` [Example 1, 3-(1-Methyl-1,2,5,6-tetrahydropyridin-3-yl)-4-((6,6,6-trifluorohexyl)oxy)-1,2,5-thiadiazole], in series [1], the intrinsic clearance (microsomal CLint) at 100 nM worked out at 447 µL/min/mg, the “Parent at 60 min (%)” value is 7% and the half-life at 100 nM was found to be 16 min. For the same compound, the “storage stability of tartrate salt” value in series [4] was “no meaningful changes were observed”. In series [2], the EC50 was determined as 15.7 nM and the “M4 Top (%)” value stood at 82%. In series [3], this compound displayed an EC50 of 3.7 nM and an Emax of 90%.
`CCCCC(F)(F)COc1nsnc1C1=CCCN(C)C1` [Example 11, 3-((2,2-Difluorohexyl)oxy)-4-(1-methyl-1,2,5,6-tetrahydropyridin-3-yl)-1,2,5-thiadiazole]: in series [1], the microsomal CLint at 100 nM stood at 2000 µL/min/mg, the “Parent at 60 min (%)” value was 7% and the half-life at 100 nM was 3 min. In addition, in series [2], the EC50 worked out at 374 nM and the “M4 Top (%)” value is 62%. In series [3], this compound returned an EC50 of 29 nM and a maximum response (Emax) of 32%.
In the case of `CN1CCC=C(c2nsnc2OCCCCC(C)(F)F)C1` [Example 8, 3-((5,5-Difluorohexyl)oxy)-4-(1-methyl-1,2,5,6-tetrahydropyridin-3-yl)-1,2,5-thiadiazole], in series [1], the microsomal CLint at 100 nM was 711 µL/min/mg, the “Parent at 60 min (%)” value is recorded as 2% and the half-life at 100 nM was determined as 10 min. For the same compound, in series [2], a half-maximal effect (EC50) was put at 12.6 nM and the “M4 Top (%)” value turned out to be 48%. For the same compound, in series [3], the EC50 amounted to 5.7 nM and the Emax was determined as 87%.
Regarding `CN1CCC=C(c2nsnc2OCCCCCCF)C1` [Example 7, 3-((6-Fluorohexyl)oxy)-4-(1-methyl-1,2,5,6-tetrahydropyridin-3-yl)-1,2,5-thiadiazole], in series [1], the microsomal CLint at 100 nM came to 553 µL/min/mg, the “Parent at 60 min (%)” value worked out at 3% and the half-life at 100 nM turned out to be 13 min. For the same compound, in series [2], the EC50 stood at 8.3 nM and the “M4 Top (%)” value is 112%. Further, in series [3], the half-maximal effective concentration (EC50) is 3.1 nM and the Emax was 93%.

(Values after US11534434B2 (Karuna Therapeutics, Inc., priority 2019, dated 2022).)
